Experimental data taken from paper PMC5703966, “Systemic clearance and brain distribution of carbazole-based cyanine compounds as Alzheimer’s disease drug candidates” (Scientific Reports, 2017).

How the values were obtained:
Assay in all cases: OATP substrate identification, uptake in stably transfected HEK293 cells
OATP1A2 = target: T1, OATP1A2 (Homo sapiens, UniProt P46721); details: 1 and 10 μM, 10 mins
T1 sequence (P46721 1-670): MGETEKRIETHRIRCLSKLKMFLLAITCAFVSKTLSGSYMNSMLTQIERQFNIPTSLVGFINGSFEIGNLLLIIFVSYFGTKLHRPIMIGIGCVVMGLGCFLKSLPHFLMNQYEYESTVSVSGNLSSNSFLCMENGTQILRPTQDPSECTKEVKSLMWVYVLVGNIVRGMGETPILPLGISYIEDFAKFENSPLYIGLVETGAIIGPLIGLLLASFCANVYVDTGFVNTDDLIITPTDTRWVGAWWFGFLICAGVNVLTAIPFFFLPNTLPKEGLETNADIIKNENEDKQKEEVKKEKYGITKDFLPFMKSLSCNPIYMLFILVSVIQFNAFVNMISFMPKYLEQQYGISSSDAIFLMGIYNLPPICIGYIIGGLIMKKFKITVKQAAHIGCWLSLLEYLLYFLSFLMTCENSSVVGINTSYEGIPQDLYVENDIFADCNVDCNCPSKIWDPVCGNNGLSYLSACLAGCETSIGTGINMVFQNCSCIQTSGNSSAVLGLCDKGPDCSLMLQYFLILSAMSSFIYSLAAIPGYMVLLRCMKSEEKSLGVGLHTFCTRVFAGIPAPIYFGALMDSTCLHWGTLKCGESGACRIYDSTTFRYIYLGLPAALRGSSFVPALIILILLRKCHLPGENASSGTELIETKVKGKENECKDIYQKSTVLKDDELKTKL
Procedure: (§1) Daily changes of medium were performed and on the second day after seeding using medium containing 10 mM sodium butyrate.
(§2) Stably transfected HEK cells and control vector-transfected HEK293 cells were first washed (3 × 1 mL) with prewarmed HBSS (pH 7.4) and then were incubated with 250 μL of HBSS containing compounds at concentrations of 1 and 10 μM. Cells were incubated for 10 mins at 37 °C for all experiments. After incubation, uptake was stopped by aspirating the incubation solution and washing each well 3 times with 200 μL of ice-old HBSS. The cells were lysed in 150 μL of 1 M NaOH for 30 mins, and then neutralized by adding equal volumes of 1 M HCl.
(§3) The following equations (3 and 4) were used to calculate the uptake rates (U, pmol/mg/min) and the OATP1B1, OATP1B3, OATP2B1 and OATP1A2 uptake ratio (UR):3 U=Clysate/P×T 4 UR=UOATP1B1/1B3/2B1/1A2/UHEK293−MOCK where C lysate is the compound concentration in cell lysates. P is the protein concentration in cell lysates. T is the incubation time. U OATP1B1/1B3/2B1/1A2 is the uptake rate obtained in HEK293 stably transfected OATP1B1, OATP1B3, OATP2B1 or OATP1A2 transportation. U HEK293-MOCK is the uptake rate obtained in control vector-transfected HEK293 transportation.

OATP1B1 = target: T2, OATP1B1 (Homo sapiens, UniProt Q9Y6L6); details: 1 and 10 μM, 10 mins
T2 sequence (Q9Y6L6 1-691): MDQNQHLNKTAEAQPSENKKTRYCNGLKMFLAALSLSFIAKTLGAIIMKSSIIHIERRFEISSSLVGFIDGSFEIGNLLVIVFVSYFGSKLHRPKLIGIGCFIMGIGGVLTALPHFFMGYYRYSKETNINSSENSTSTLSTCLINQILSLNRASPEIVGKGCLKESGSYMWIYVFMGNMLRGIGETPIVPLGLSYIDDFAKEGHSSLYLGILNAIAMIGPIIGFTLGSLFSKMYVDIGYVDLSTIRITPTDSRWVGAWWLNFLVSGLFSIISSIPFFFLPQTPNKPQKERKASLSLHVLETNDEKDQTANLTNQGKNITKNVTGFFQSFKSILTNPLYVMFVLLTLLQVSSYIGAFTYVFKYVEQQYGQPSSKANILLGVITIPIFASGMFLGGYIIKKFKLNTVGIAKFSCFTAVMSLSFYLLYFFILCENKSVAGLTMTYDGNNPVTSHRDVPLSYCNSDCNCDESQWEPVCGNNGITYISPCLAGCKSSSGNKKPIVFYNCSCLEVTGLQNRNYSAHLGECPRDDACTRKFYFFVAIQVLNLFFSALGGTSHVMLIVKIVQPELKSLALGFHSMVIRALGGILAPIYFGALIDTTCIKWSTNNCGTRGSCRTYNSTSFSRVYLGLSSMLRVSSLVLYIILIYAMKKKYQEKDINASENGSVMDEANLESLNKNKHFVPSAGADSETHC
Procedure: as §1, §2, §3

OATP2B1 = target: T3, OATP2B1 (Homo sapiens, UniProt O94956); details: for uptake in cells transfected with OATP2B1 versus WT cells: 1 and 10 μM, 10 mins
T3 sequence (O94956 1-709): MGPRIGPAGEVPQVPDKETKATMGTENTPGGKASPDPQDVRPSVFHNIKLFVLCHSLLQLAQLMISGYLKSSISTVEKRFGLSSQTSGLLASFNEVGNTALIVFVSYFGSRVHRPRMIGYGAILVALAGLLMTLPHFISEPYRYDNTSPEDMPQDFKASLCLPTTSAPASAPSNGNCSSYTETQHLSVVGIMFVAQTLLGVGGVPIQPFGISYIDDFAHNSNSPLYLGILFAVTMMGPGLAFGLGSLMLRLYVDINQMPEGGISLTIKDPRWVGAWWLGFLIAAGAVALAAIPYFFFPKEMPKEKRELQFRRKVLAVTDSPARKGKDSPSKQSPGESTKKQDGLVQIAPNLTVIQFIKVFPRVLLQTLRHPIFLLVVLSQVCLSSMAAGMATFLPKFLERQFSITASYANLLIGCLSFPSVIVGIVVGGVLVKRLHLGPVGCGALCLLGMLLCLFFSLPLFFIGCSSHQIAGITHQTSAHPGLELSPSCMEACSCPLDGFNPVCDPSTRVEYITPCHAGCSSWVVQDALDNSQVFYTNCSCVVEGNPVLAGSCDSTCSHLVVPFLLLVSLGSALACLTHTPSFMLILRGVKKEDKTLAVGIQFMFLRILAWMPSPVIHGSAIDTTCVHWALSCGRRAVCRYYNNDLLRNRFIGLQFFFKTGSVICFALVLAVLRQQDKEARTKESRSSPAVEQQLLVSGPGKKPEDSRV
Procedure: as §1, §2, §3

SMILES	uptake by OATP1A2 transfected HEK293 versus WT cells (OATP1A2)	uptake by OATP1B1 transfected HEK293 versus WT cells (OATP1B1)	OATP2B1 substrate identification (OATP2B1)	uptake in cells transfected with OATP2B1 versus WT cells (OATP2B1)
COCCOCCn1c2ccccc2c2cc(/C=C/c3cc[n+](C)c4ccccc34)ccc21.[I-] [SLM, (E)-4-(2-(9-(2-(2-methoxyethoxy)ethyl)-9H-carbazol-3-yl)-vinyl)-1-methyl-quinolin-1-iumiodide]	no significant differences	no significant differences	substrates	doubled
COCCOCCn1c2ccccc2c2cc(/C=C/c3cc[n+](CCO)c4ccccc34)ccc21 [SLOH, (E)-1-(2-hydroxyethyl)-4-(2-(9-(2-(2-metho-xyethoxy)-ethyl)-9H-carbazol-3-yl)vinyl) quinolin-1-ium chloride]	no significant differences	no significant differences	substrates	doubled
